Laboratory results reported in patent publication US9808470B2, “Estrogenic components for use in the treatment of neurological disorders” (UNIVERSITE DE LIEGE, priority 2012, dated 2017).

What was measured:
[1] = system: glial fibrillary acidic protein (GFAP); assay: Ex.8 neuroprotective HIE rat model: blood serum GFAP ELISA; type: in vivo
Procedure: Newborn rat pups were assigned to one of the following 14 groups from postnatal day 4 (FIG. 23(A)): Sham group (n=12), Vehicle group (n=17), 5 mg/kg/day E4 (n=13), 10 mg/kg/day E4 (n=10), 5 mg/kg/day E4+1.6 mg/kg/day PROG (n=11), 10 mg/kg/day E4+1.6 mg/kg/day PROG (n=11), 5 mg/kg/day E4+16 mg/kg/day PROG (n=11), 10 mg/kg/day E4+16 mg/kg/day PROG (n=11), 5 mg/kg/day E4+136 ng//kg/day E2 (n=11), 10 mg/kg/day E4+136 ng/kg/day E2 (n=11), 5 mg/kg/day E4+1.6 mg/kg/day PROG+136 ng/kg/day (n=13) E2, 10 mg/kg/day E4+1.6 mg/kg/day PROG+136 ng/kg/day E2 (n=16), 5 mg/kg/day E4+16 mg/kg/day PROG+136 ng/kg/day E2 (n=11), 10 mg/kg/day E4+16 mg/kg/day PROG+136 ng/kg/day groups (n=13). Intraperitoneal injections of the pups from study groups were performed from postnatal day 4 to postnatal day 7 inclusively. At day 7, 30 minutes after last injection, animals were anesthetized with isoflurane (induction, 3.0%; maintenance, 1.5%), and the rat pups from vehicle and all the other groups, except the sham group, passed through surgery encompassing left common carotid artery double ligation and cut. After the procedure, the pups were returned to their dams and were allowed to recover for 1 hour. The pups were then placed in the humidified hypoxic in vivo cabinet (CoyLab, Grass Lake, Mich., USA). […]

[2] = system: Microtubule-associated protein 2 (MAP2); assay: Ex.3 neuroprotective HIE rat model: MAP2 staining; type: in vivo; settings: PND14
Procedure: The brain sections were processed for immunohistochemical detection of neuronal cytoskeletal disruption. For antigen retrieval, the sections were heated in 10 mmol/L citrate buffer (pH 6.0) at 100° C. for 10 minutes. Endogenous peroxidase activity was blocked with 3% hydrogen peroxide for 10 minutes and after a second blocking with 5% normal goat serum, the sections were incubated with anti-microtubule-associated protein 2 (MAP2) antibody, diluted 1:1000 (mouse monoclonal antibody; Sigma, St. Louis, Mo., US) 1 h at room temperature. After rinsing, biotinylated goat anti-mouse immunoglobulin G (Vector Laboratories, Burlingame, Calif.) was added, and antibody detection was performed with the avidin-biotin complex method (Vector Laboratories), with 3,3′-diaminobenzidine (DAB) as the chromogen. Following the reaction with DAB, the slides were washed, dehydrated, and coverslipped.
Samples were analyzed with the aid of an image scanner (Nanozoomer Virtual Microscopy, Hamamatsu, Tokyo, Japan) and the ImageJ software (NIH, US). The MAP2 positive areas in the ipsilateral and contralateral hemispheres were measured. The ratio of the MAP2 positive areas was calculated as the MAP2 positive area of the ipsilateral hemisphere divided by the MAP2 positive area of the contralateral hemisphere. The ratio of the MAP2 positive area in the Sham group was considered by default as 1.0.
Newborn rat pups were assigned to one of the following 6 groups from postnatal day 4: Sham group (n=24), Vehicle group (n=14), E4 1 mg/kg/per day group (n=11), E4 5 mg/kg/per day group (n=14), E4 10 mg/kg/per day group (n=14), or E4 50 mg/kg/per day group (n=19). From postnatal day 4, rat pups were intraperitoneally injected either vehicle (Vehicle group) or E4 (1, 5, 10, or 50 mg/kg/per day in accordance to the E4 group assignment) or neither vehicle nor E4 (Sham group). At day 7, 30 minutes after last injection, animals were anesthetized with isoflurane (induction, 3.0%; maintenance, 1.5%), and the rat pups from Vehicle and E4 groups passed through surgery encompassing left common carotid artery double ligation and cut. After the procedure, the pups were returned to their dams and were allowed to recover for 1 hour. The pups were then placed in the humidified hypoxic in vivo cabinet (CoyLab, Grass Lake, Mich., USA). Hypoxia was produced by the inhalation of 11%-8% of oxygen balanced by nitrogen at decreased concentration of oxygen for 20 minutes, followed by inhalation of 8% oxygen and 92% nitrogen at constant concentration for 35 minutes. All the manipulations were performed at 37° C. The Sham group went through similar procedures without left common carotid artery ligation followed by hypoxia nor injection. […]

## C[C@]12CC[C@@H]3c4ccc(O)cc4CC[C@H]3[C@@H]1[C@@H](O)[C@@H](O)[C@@H]2O [E4, 1,3,5(10)-estratrien-3,15α,16α,17β-tetrol]
[1]; 5 mg/kg/day, PND14
  concentration of GFAP in blood serum: 6220.49 ± 1763.17 pg/mL
[1]; 10 mg/kg/day E4, PND14
  concentration of GFAP in blood serum: 12413.45 ± 2243.05 pg·mL
[2]; 1 mg/kg E4 ip PND4-7 before HI
  ratio of MAP2-positive area (ipsilateral/contralateral): 0.929±0.019
[2]; 5 mg/kg E4 ip PND4-7 before HI
  ratio of MAP2-positive area (ipsilateral/contralateral): 0.889±0.063
[2]; 10 mg/kg E4 ip PND4-7 before HI
  ratio of MAP2-positive area (ipsilateral/contralateral): 0.898±0.022
[2]; 50 mg/kg E4 ip PND4-7 before HI
  ratio of MAP2-positive area (ipsilateral/contralateral): 0.922±0.031
